The record followed here is patent US20240391882A1 (Mirati Therapeutics, Inc., priority 2023, published 2024).

One assay deals with pAKT in T47D (PI3Kα H1047R mutant) cells. The experiment in a line: Inhibition of pAKT (alphaLISA Surefire Ultra AKT 1/2/3 pS473) in T47D cells. As to conditions: Homo sapiens; T47D (PI3Kα H1047R mutant) cells, 24 hr compound incubation, alphaLISA pS473; read-out: T47D (H1047R) pAKT 24 hr (IC50). The format is cell-based. On the procedure:
The ability of a compound of Formula (I) to inhibit the formation of pAKT was measured using alphaLISA Surefire Ultra AKT 1/2/3 (pS473) Assay Kit (#ALSU-PAKT-B50K) was obtained from Perkin Elmer (Waltham, MA).
To prepare assay plates for pAKT alphaLISA assays, cells were trypsinized, resuspended in fresh media, and viable cells were counted utilizing trypan blue exclusion. Prior to seeding, cells were washed with PBS and resuspended in HBSS (Gibco, #14025092). T47D (12,000/w), SKBR3 (12,000/w), or MKN1 (24,000/w) cells were seeded at 12 μl per well in a solid white flat bottom 384 cell culture plate (Perkin Elmer #6007680).
Immediately after seeding, cells were dosed using an Echo Liquid Handler (Beckman Coulter) with compounds at a 10.4 μm starting concentration and serially diluted (1:4) for a total of 10 concentrations. 14 vehicle (DMSO) and 14 positive control (Alpelisib @3.125 μm) wells were included on each assay plate. Cells were incubated with the compounds (solubilized in DMSO) for approximately 24 hours at 37° C. After 24 hours of treatment, cells were lysed with 3 μl of the 5× lysis buffer (provided and incubated at room temperature for 15 min on a microtiter plate shaker). Once cells were sufficiently lysed, 7.5 μl of the acceptor bead mix (made using the manufacturers recommended dilutions) was added to each well and left on the microtiter plate shaker for 1 min prior to incubating plates at room temperature for 1 hour, in the absence of light. After 1 hour of incubation with the acceptor bead mix, 7.5 μl of the donor bead mix (made using the manufacturers recommended dilutions) was added to each well and left on the microtiter plate shaker for 1 min prior to incubating plates at room temperature overnight in the absence of light. Plates were then imaged the following day using a CLARIOstar microplate reader (BMG Labtech, Germany).
Percent of control values were calculated by subtracting the average signal from the positive control (alpelisib) treated wells from all treated wells (including DMSO control wells) and then divided by the average signal from the vehicle DMSO treated control wells. Percent of vehicle control values were plotted as log(inhibitor) vs. response—Variable slope (four parameters) for curve fitting and IC50 values were determined using XLfit.
(Alpha assays give light when donor and acceptor beads are brought close together.)
Usually IC50 stands for the midpoint of a concentration-inhibition curve. Consider `Cc1cc([C@@H](C)Nc2ccc(Cl)nc2C(=O)O)c2nc(-n3ccnc3)c(C#N)nc2c1` [Example 117, (R)-6-chloro-3-((1-(2-cyano-3-(1H-imidazol-1-yl)-7-methylquinoxalin-5-yl)ethyl)amino)picolinic acid], for which the half-inhibitory concentration (IC50) was determined as 66 nM.

For `Cc1cc([C@@H](C)Nc2ccc(Cl)nc2C(=O)O)c2nc(N3CC(C(F)(F)F)C3)c(C#N)nc2c1` [Example 131, (R)-6-chloro-3-((1-(2-cyano-7-methyl-3-(3-(trifluoromethyl)azetidin-1-yl)quinoxalin-5-yl)ethyl)amino)picolinic acid], the IC50 was 2.2 nM.

With `Cc1cc([C@@H](C)Nc2ccc(Cl)nc2C(=O)O)c2nc(N3CCN(c4ccc(C(F)(F)F)cn4)CC3)c(C#N)nc2c1` [Example 179, (R)-6-chloro-3-((1-(2-cyano-7-methyl-3-(4-(5-(trifluoromethyl)pyridin-2-yl)piperazin-1-yl)quinoxalin-5-yl)ethyl)amino)picolinic acid], the IC50 turned out to be 3.9 nM.

On to `Cc1cc([C@@H](C)Nc2ccc(Cl)nc2C(=O)O)c2nc(N3C[C@H](F)[C@@H](F)C3)c(C#N)nc2c1` [Example 178, 6-chloro-3-(((R)-1-(2-cyano-3-((3S,4S)-3,4-difluoropyrrolidin-1-yl)-7-methylquinoxalin-5-yl)ethyl)amino)picolinic acid], for which the half-inhibitory concentration (IC50) is 0.5 nM.

Turning to `COCCNc1nc2c([C@@H](C)Nc3ccc(Cl)nc3C(=O)O)cc(C)cc2nc1C#N` [Example 132, (R)-6-chloro-3-((1-(2-cyano-3-((2-methoxyethyl)amino)-7-methylquinoxalin-5-yl)ethyl)amino)picolinic acid], the IC50 came out at 0.9 nM.

For `Cc1cc([C@@H](C)Nc2ccc(Cl)nc2C(=O)O)c2nc(N3CCC(n4cc(C(F)(F)F)cn4)CC3)c(C#N)nc2c1` [Example 139, (R)-6-chloro-3-((1-(2-cyano-7-methyl-3-(4-(4-(trifluoromethyl)-1H-pyrazol-1-yl)piperidin-1-yl)quinoxalin-5-yl)ethyl)amino)picolinic acid], the IC50 was 2.1 nM.

In the case of `Cc1cc([C@@H](C)Nc2ccc(Cl)nc2C(=O)O)c2nc(N3CCN(c4ccc(C(F)(F)F)nc4)CC3)c(C#N)nc2c1` [Example 133, (R)-6-chloro-3-((1-(2-cyano-7-methyl-3-(4-(6-(trifluoromethyl)pyridin-3-yl)piperazin-1-yl)quinoxalin-5-yl)ethyl)amino)picolinic acid], the IC50 is 0.8 nM.

Regarding `Cc1cc([C@@H](C)Nc2ccccc2C(=O)O)c2nc(N3CC4(CCO4)C3)c(C#N)nc2c1` [Example 134, (R)-2-((1-(2-cyano-7-methyl-3-(1-oxa-6-azaspiro[3.3]heptan-6-yl)quinoxalin-5-yl)ethyl)amino)benzoic acid], the IC50 turned out to be 10.9 nM.

For `Cc1cc([C@@H](C)Nc2ccc(Cl)nc2C(=O)O)c2nc(N3CCC(n4cc(C)cn4)CC3)c(C#N)nc2c1` [Example 138, (R)-6-chloro-3-((1-(2-cyano-7-methyl-3-(4-(4-methyl-1H-pyrazol-1-yl)piperidin-1-yl)quinoxalin-5-yl)ethyl)amino)picolinic acid], the IC50 turned out to be 0.8 nM.

Turning to `CC(=O)N(C)C1CCN(c2nc3c([C@@H](C)Nc4ccc(Cl)nc4C(=O)O)cc(C)cc3nc2C#N)CC1` [Example 137, (R)-6-chloro-3-((1-(2-cyano-7-methyl-3-(4-(N-methylacetamido)piperidin-1-yl)quinoxalin-5-yl)ethyl)amino)picolinic acid], the half-maximal inhibitory concentration (IC50) came out at 1.3 nM.

As to `Cc1cc([C@@H](C)Nc2ccc(Cl)nc2C(=O)O)c2nc(N3CCC(n4cccn4)CC3)c(C#N)nc2c1` [Example 136, (R)-3-((1-(3-(4-(1H-pyrazol-1-yl)piperidin-1-yl)-2-cyano-7-methylquinoxalin-5-yl)ethyl)amino)-6-chloropicolinic acid], the IC50 turned out to be 0.7 nM.

As for `Cc1cc([C@@H](C)Nc2ccc(Cl)nc2C(=O)O)c2nc(NCC3COC3)c(C#N)nc2c1` [Example 135, (R)-6-chloro-3-((1-(2-cyano-7-methyl-3-((oxetan-3-ylmethyl)amino)quinoxalin-5-yl)ethyl)amino)picolinic acid], the IC50 is 19.2 nM.

`Cc1cc([C@@H](C)Nc2ccc(Cl)nc2C(=O)O)c2nc(N3CCc4cc(C#N)ccc4C3)c(C#N)nc2c1` [Example 85, (R)-6-chloro-3-((1-(2-cyano-3-(6-cyano-3,4-dihydroisoquinolin-2(1H)-yl)-7-methylquinoxalin-5-yl)ethyl)amino)picolinic acid]: the IC50 was determined as 2 nM.

A further assay concerns T47D (PI3Kα H1047R mutant) cells. The experiment in a line: Cell viability (CellTiter-Glo 2.0) in T47D cells. To be noted: Homo sapiens, T47D, 72 h, approximately 72 hours. The class given is cell-based. On the procedure: This Example illustrates that representative compounds of the invention decrease the viability of cells.
The ability of a compound of Formula (I) to decrease the viability of cells was measured using CellTiter-Glo 2.0 (CTG) Luminescent Cell Viability Assay (#G9241) obtained from Promega (Madison, WI).
To prepare assay plates for viability assays, cells were trypsinized, resuspended in fresh media, and viable cells were counted utilizing trypan blue exclusion. T47D, SKBR3, or MKN1 cells were seeded at 1000 cells in 30 μl per well in a solid white flat bottom 384 cell culture plate (Perkin Elmer #6007680) and incubated at 37° C. overnight.
Assay day 1, cells were dosed using an Echo Liquid Handler (Beckman Coulter) with compounds at a 10 μm starting concentration and serially diluted (1:4) for a total of 10 concentrations. Cells were incubated for approximately 72 hours with the compounds (solubilized in DMSO) at 37° C. After 72 hours of treatment, cell plates were equilibrated to room temperature before adding 15 μl of CTG to each well, plates were then covered in aluminum foil to protect from light, incubated at room temperature for 30 minutes on a microtiter plate shaker, and luminescence readings were collected using a CLARIOstar microplate reader (BMG Labtech, Germany). Percent of vehicle control values were plotted as log(inhibitor) vs. response—Variable slope (four parameters) for curve fitting and IC50 values were determined using XLfit.
For orientation: ATP-based viability assays read luminescence as a measure of living cells.
`Cc1cc([C@@H](C)Nc2ccc(Cl)nc2C(=O)O)c2nc(N3CC4(CCO4)C3)c(C#N)nc2c1` [Example 130, (R)-6-chloro-3-((1-(2-cyano-7-methyl-3-(1-oxa-6-azaspiro[3.3]heptan-6-yl)quinoxalin-5-yl)ethyl)amino)picolinic acid] came in with a half-maximal inhibitory concentration (IC50) of 65.6 nM.

Take `Cc1cc([C@@H](C)Nc2ccc(Cl)nc2C(=O)O)c2nc(N3CCC(F)(F)[C@H]3C)c(C#N)nc2c1` (single isomer, unassigned) [Example 170]: the IC50 is 93.3 nM.

As to `Cc1cc([C@@H](C)Nc2ccc(Cl)nc2C(=O)O)c2nc(-n3ccnc3)c(C#N)nc2c1` [Example 117, (R)-6-chloro-3-((1-(2-cyano-3-(1H-imidazol-1-yl)-7-methylquinoxalin-5-yl)ethyl)amino)picolinic acid], the IC50 came to 498 nM.

`CCOCC1CCN(c2nc3c([C@@H](C)Nc4ccc(Cl)nc4C(=O)O)cc(C)cc3nc2C#N)CC1` [Example 119, (R)-6-chloro-3-((1-(2-cyano-3-(4-(ethoxymethyl)piperidin-1-yl)-7-methylquinoxalin-5-yl)ethyl)amino)picolinic acid] had an IC50 of 59.9 nM.

Turning to `Cc1cc([C@@H](C)Nc2ccc(Cl)nc2C(=O)O)c2nc(N3CCN(c4ccc(C(F)(F)F)cn4)CC3)c(C#N)nc2c1` [Example 179, (R)-6-chloro-3-((1-(2-cyano-7-methyl-3-(4-(5-(trifluoromethyl)pyridin-2-yl)piperazin-1-yl)quinoxalin-5-yl)ethyl)amino)picolinic acid], the IC50 was determined as 77.3 nM.

Consider `CO[C@@H]1CN(c2nc3c([C@@H](C)Nc4ccc(Cl)nc4C(=O)O)cc(C)cc3nc2C#N)CC1(F)F` (single isomer, unassigned) [Example 172], for which the IC50 was 170 nM.

The compound `Cc1cc([C@@H](C)Nc2ccc(Cl)nc2C(=O)O)c2nc(N3C[C@H](F)[C@@H](F)C3)c(C#N)nc2c1` [Example 178, 6-chloro-3-(((R)-1-(2-cyano-3-((3S,4S)-3,4-difluoropyrrolidin-1-yl)-7-methylquinoxalin-5-yl)ethyl)amino)picolinic acid] showed an IC50 of 24.4 nM.

In turn, `Cc1cc([C@@H](C)Nc2cccnc2C(=O)O)c2nc(N3CCC(F)(F)CC3)c(C#N)nc2c1` [Example 118, (R)-3-((1-(2-cyano-3-(4,4-difluoropiperidin-1-yl)-7-methylquinoxalin-5-yl)ethyl)amino)picolinic acid] displayed an IC50 of 383 nM.

As for `CO[C@H]1CN(c2nc3c([C@@H](C)Nc4ccc(Cl)nc4C(=O)O)cc(C)cc3nc2C#N)CC1(F)F` (single isomer, unassigned) [Example 171], inhibition was half-maximal at 178 nM (IC50).

On to `Cc1cc([C@@H](C)Nc2ccc(Cl)nc2C(=O)O)c2nc(N3CC[C@H](S(C)(=O)=O)C3)c(C#N)nc2c1` [Example 175, 6-chloro-3-(((R)-1-(2-cyano-7-methyl-3-((S)-3-(methylsulfonyl)pyrrolidin-1-yl)quinoxalin-5-yl)ethyl)amino)picolinic acid], for which the IC50 turned out to be 344 nM.

Take `Cc1cc([C@@H](C)Nc2ccc(Cl)nc2C(=O)O)c2nc(N3CCO[C@H](C)C3)c(C#N)nc2c1` [Example 168, 6-chloro-3-(((R)-1-(2-cyano-7-methyl-3-((R)-2-methylmorpholino)quinoxalin-5-yl)ethyl)amino)picolinic acid]: 45.8 nM corresponded to half-maximal inhibition (IC50).

Consider `Cc1cc([C@@H](C)Nc2ccc(Cl)nc2C(=O)O)c2nc(N3CCC(F)(F)[C@@H]3C)c(C#N)nc2c1` (single isomer, unassigned) [Example 169], for which the IC50 was 108 nM.

In turn, `Cc1cc([C@@H](C)Nc2cscc2C(=O)O)c2nc(N3CCC(F)(F)CC3)c(C#N)nc2c1` [Example 121, (R)-4-((1-(2-cyano-3-(4,4-difluoropiperidin-1-yl)-7-methylquinoxalin-5-yl)ethyl)amino)thiophene-3-carboxylic acid] had an IC50 of 651 nM.
